Tested on: G-401 tumor spheroids, viability % test/control
Test: Anticancer human tumor G-401 cell line growth inhibition;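 note: spheroids exposed to compound for 7 days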;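 for viability, T/C: 100% = DMSO vehicle-treated spheroids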
Conditions: spheroids with HUVEC and MSC; for IC50: curve of first compound; for viability, T/C: stronger effect = lower value
How it was run: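 Complex spheroids of malignant cells with endothelial cells and mesenchymal stem cells; agents alone or combined, from near clinical Cmax (or 10 microM if unknown) down in half-log steps, 0.25% DMSO final.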

[1] = second compound 1 µM, first compound 0.0316 µM
[2] = second compound 1 µM, first compound 0.1 µM
[3] = second compound 1 µM, first compound 0.316 µM
[4] = second compound 1 µM, first compound 1 µM
[5] = second compound 1 µM, first compound 3.16 µM
[6] = second compound 1 µM, first compound 10 µM
[7] = second compound 3.16 µM, first compound 0.0316 µM
[8] = second compound 3.16 µM, first compound 0.1 µM
[9] = second compound 3.16 µM, first compound 0.316 µM
[10] = second compound 3.16 µM, first compound 1 µM
[11] = second compound 3.16 µM, first compound 3.16 µM
[12] = second compound 3.16 µM, first compound 10 µM
[13] = second compound 10 µM, first compound 0.0316 µM
[14] = second compound 10 µM, first compound 0.1 µM
[15] = second compound 10 µM, first compound 0.316 µM
[16] = second compound 10 µM, first compound 1 µM
[17] = second compound 10 µM, first compound 3.16 µM
[18] = second compound 10 µM, first compound 10 µM
[19] = second compound 31.6 µM, first compound 0.0316 µM
[20] = second compound 31.6 µM, first compound 0.1 µM
[21] = second compound 31.6 µM, first compound 0.316 µM
[22] = second compound 31.6 µM, first compound 1 µM
[23] = second compound 31.6 µM, first compound 3.16 µM
[24] = second compound 31.6 µM, first compound 10 µM
[25] = second compound 100 µM, first compound 0.0316 µM
[26] = second compound 100 µM, first compound 0.1 µM
[27] = second compound 100 µM, first compound 0.316 µM
[28] = second compound 100 µM, first compound 1 µM
[29] = second compound 100 µM, first compound 3.16 µM
[30] = second compound 100 µM, first compound 10 µM

For CC1COCCN1c1cc(-c2ccnn2C)c2ccnc(-c3ccn[nH]3)c2n1 (stereo not given) + Cn1nnc2c(C(N)=O)ncn2c1=O, the IC50 (second compound 1 µM) was 76.9 nM, the IC50 (second compound 3.16 µM) was 86.6 nM and the IC50 (second compound 10 µM) was 79.7 nM. It also gave an IC50 (second compound 31.6 µM) of 70 nM, an IC50 (second compound 100 µM) of 55.6 nM and a viability, T/C [1] of 76.3%. The viability, T/C [2] was 42.1%, the viability, T/C [3] was 22.9% and the viability, T/C [4] was 15.9%. It also gave a viability, T/C [5] of 16.1%, a viability, T/C [6] of 20% and a viability, T/C [7] of 79.8%. It also gave a viability, T/C [8] of 45.6%, a viability, T/C [9] of 24.9% and a viability, T/C [10] of 16.8%. For the same compound, the viability, T/C [11] was 17.4%, the viability, T/C [12] was 19.8% and the viability, T/C [13] was 76%. For the same compound, the viability, T/C [14] was 43.6%, the viability, T/C [15] was 21.5% and the viability, T/C [16] was 15.7%. For the same compound, the viability, T/C [17] was 16.4%, the viability, T/C [18] was 18.8% and the viability, T/C [19] was 74.5%. It also gave a viability, T/C [20] of 39%, a viability, T/C [21] of 18% and a viability, T/C [22] of 15.4%. For the same compound, the viability, T/C [23] was 16.2%, the viability, T/C [24] was 18.5% and the viability, T/C [25] was 66%. For the same compound, the viability, T/C [26] was 33.4%, the viability, T/C [27] was 13.7% and the viability, T/C [28] was 12.7%. The viability, T/C [29] was 14.1% and the viability, T/C [30] was 12%.
In the case of COc1cc(C)[nH]c(=O)c1CN1CCc2c(Cl)cc(C(OC)C3COC3)c(Cl)c2C1=O (stereo not given) + Cn1nnc2c(C(N)=O)ncn2c1=O, the IC50 (second compound 1 µM) is reported as 160 nM, the IC50 (second compound 3.16 µM) is reported as 201 nM and the IC50 (second compound 10 µM) is reported as 145 nM. The IC50 (second compound 31.6 µM) was 208 nM, the IC50 (second compound 100 µM) was 203 nM and the viability, T/C [1] was 88.4%. It also gave a viability, T/C [2] of 57.9%, a viability, T/C [3] of 38.3% and a viability, T/C [4] of 31.7%. The viability, T/C [5] was 21.3%, the viability, T/C [6] was 27.6% and the viability, T/C [7] was 86.3%. It also gave a viability, T/C [8] of 63%, a viability, T/C [9] of 41.2% and a viability, T/C [10] of 30.4%. For the same compound, the viability, T/C [11] was 24.3%, the viability, T/C [12] was 23.5% and the viability, T/C [13] was 81%. The viability, T/C [14] was 59.9%, the viability, T/C [15] was 25.5% and the viability, T/C [16] was 33.8%. The viability, T/C [17] was 30.4%, the viability, T/C [18] was 27.2% and the viability, T/C [19] was 81.8%. For the same compound, the viability, T/C [20] was 60.8%, the viability, T/C [21] was 43.9% and the viability, T/C [22] was 32.2%. The viability, T/C [23] was 27.9%, the viability, T/C [24] was 23.4% and the viability, T/C [25] was 88.3%. The viability, T/C [26] was 62%, the viability, T/C [27] was 43.3% and the viability, T/C [28] was 29.6%. It also gave a viability, T/C [29] of 30.8% and a viability, T/C [30] of 24.7%.
In the case of Cc1cc(C)c(CNC(=O)c2cc(-c3ccc(CN4CCOCC4)cc3)cc3c2cnn3C2CCCC2)c(=O)[nH]1 + Cn1nnc2c(C(N)=O)ncn2c1=O, the IC50 (second compound 1 µM) is reported as > 10000 nM, the IC50 (second compound 3.16 µM) is reported as > 10000 nM and the IC50 (second compound 10 µM) is reported as > 10000 nM. For the same compound, the IC50 (second compound 31.6 µM) was > 10000 nM, the IC50 (second compound 100 µM) was 8790 nM and the viability, T/C [1] was 111%. It also gave a viability, T/C [2] of 106%, a viability, T/C [3] of 95.8% and a viability, T/C [4] of 105%. For the same compound, the viability, T/C [5] was 87.9%, the viability, T/C [6] was 62.5% and the viability, T/C [7] was 103%. The viability, T/C [8] was 104%, the viability, T/C [9] was 105% and the viability, T/C [10] was 93.3%. For the same compound, the viability, T/C [11] was 80.6%, the viability, T/C [12] was 55.8% and the viability, T/C [13] was 103%. For the same compound, the viability, T/C [14] was 99%, the viability, T/C [15] was 97.1% and the viability, T/C [16] was 90.1%. The viability, T/C [17] was 82.6%, the viability, T/C [18] was 53.5% and the viability, T/C [19] was 94.3%. The viability, T/C [20] was 94.4%, the viability, T/C [21] was 92.9% and the viability, T/C [22] was 91.5%. For the same compound, the viability, T/C [23] was 80.5%, the viability, T/C [24] was 52% and the viability, T/C [25] was 96.5%. It also gave a viability, T/C [26] of 103%, a viability, T/C [27] of 94.3% and a viability, T/C [28] of 93.6%. It also gave a viability, T/C [29] of 74.2% and a viability, T/C [30] of 46.9%.
For [2H]c1nc(C)nc([2H])c1-c1cc(NC[C@@H](C)c2cccc3c(C(=O)NC)ccnc23)ncn1 + Cn1nnc2c(C(N)=O)ncn2c1=O, the IC50 (second compound 1 µM) was > 10000 nM, the IC50 (second compound 3.16 µM) was > 10000 nM and the IC50 (second compound 10 µM) was > 10000 nM. The IC50 (second compound 31.6 µM) was > 10000 nM, the IC50 (second compound 100 µM) was > 10000 nM and the viability, T/C [1] was 101%. For the same compound, the viability, T/C [2] was 106%, the viability, T/C [3] was 110% and the viability, T/C [4] was 102%. It also gave a viability, T/C [5] of 107%, a viability, T/C [6] of 103% and a viability, T/C [7] of 105%. It also gave a viability, T/C [8] of 99.3%, a viability, T/C [9] of 101% and a viability, T/C [10] of 99.8%. It also gave a viability, T/C [11] of 105%, a viability, T/C [12] of 103% and a viability, T/C [13] of 93%. For the same compound, the viability, T/C [14] was 99.6%, the viability, T/C [15] was 101% and the viability, T/C [16] was 96%. For the same compound, the viability, T/C [17] was 108%, the viability, T/C [18] was 94% and the viability, T/C [19] was 96.3%. For the same compound, the viability, T/C [20] was 101%, the viability, T/C [21] was 99.7% and the viability, T/C [22] was 100%. For the same compound, the viability, T/C [23] was 94.2%, the viability, T/C [24] was 97.4% and the viability, T/C [25] was 95.9%. The viability, T/C [26] was 94.8%, the viability, T/C [27] was 105% and the viability, T/C [28] was 92.8%. For the same compound, the viability, T/C [29] was 89.6% and the viability, T/C [30] was 86.5%.
